Results taken from PMC5628141 (Molecular cancer therapeutics, 2017).
pKd: −log10 of the molar value.

Biological target: T1, androgen receptor DNA binding domain (AR-DBD) (Rattus norvegicus, UniProt P15207, C552A)
T1 sequence (P15207 550-637 C552A): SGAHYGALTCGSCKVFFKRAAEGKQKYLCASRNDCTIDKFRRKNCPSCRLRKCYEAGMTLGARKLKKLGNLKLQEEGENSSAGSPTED
Test: isothermal titration calorimetry

SMILES: Brc1cn(-c2csc(N3CCOCC3)n2)c(Br)n1 [VPC-14449, 4-(4-(2,4-bromo-1H-imidazol-1-yl)thiazol-2-yl)morpholine]
- pKd: ~4.19
